Results: the supplement of paper PMC10627819

Key:
S. pneumoniae D39V [1] = experiment: fitness (endpoint OD595 vs no drug) (fraction); higher = more growth
Procedure, shortened: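 Each well of a 384-well plate received 30 µl of culture at OD595 0.01, or 55 µl for S. pneumoniae. TSB, LB Lennox or CY served as media at 37 °C. OD595 was taken every 30 min for 14 h and corrected by subtracting the first reading. Fitness is the optical density at stationary-phase entry divided by the robust mean of no-drug controls, capped at 1.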

B. subtilis 168 = experiment: Bliss interaction score (quartile over a dose matrix) (fitness difference); higher = more antagonism (negative = synergy)
Procedure, shortened: (§1)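 Quartiles of the Bliss score were taken over technical, biological and donor/recipient replicates. That score is observed fitness minus the product of the single-drug fitness values, which were inferred from combination data. Fitness itself is OD595 at entry into stationary phase divided by the plate's robust no-drug mean, with a cap at 1.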

S. aureus DSM 20231 = experiment: as above
Procedure, shortened: as §1

S. aureus Newman = experiment: as above
Procedure, shortened: as §1

S. pneumoniae D39V [2] = experiment: as above
Procedure, shortened: as §1
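For Bliss interaction score (quartile over a dose matrix) in this document: first quartile when negative (synergy) and third quartile when positive (antagonism).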

CC[C@H]1OC(=O)[C@H](C)[C@@H](O[C@H]2C[C@@](C)(OC)[C@@H](O)[C@H](C)O2)[C@H](C)[C@@H](O[C@@H]2O[C@H](C)C[C@H](N(C)C)[C@H]2O)[C@](C)(OC)C[C@@H](C)C(=O)[C@H](C)[C@@H](O)[C@]1(C)O [Clarithromycin] + C[C@@H](O)[C@H]1C(=O)N2C(C(=O)O)=C(SCCNC=N)C[C@H]12 [Imipenem]
fitness, S. pneumoniae D39V [1], one replicate
Conditions	first compound 0.007812 µg/mL	first compound 0.01562 µg/mL	first compound 0.03125 µg/mL
partner 0.005 µg/mL	0.831	0.812	0.589
partner 0.01 µg/mL	0.855	0.837	0.612
partner 0.02 µg/mL	0.858	0.844	0.629

fitness, S. pneumoniae D39V [1]
Conditions	first compound 0.0625 µg/mL	first compound 0.07 µg/mL	first compound 0.125 µg/mL	first compound 0.14 µg/mL	first compound 0.25 µg/mL	first compound 0.28 µg/mL
partner 0.005 µg/mL	–	0.13	–	0.0799	–	0.0611
partner 0.0065 µg/mL	0.541	–	0.154	–	0.0361	–
partner 0.01 µg/mL	–	0.146	–	0.0799	–	0.0532
partner 0.013 µg/mL	0.661	–	0.277	–	0.0557	–
partner 0.02 µg/mL	–	0.17	–	0.109	–	0.0635
partner 0.026 µg/mL	0.621	–	0.201	–	0.0493	–

Conditions	Bliss interaction score
B. subtilis 168	0.0428
S. aureus DSM 20231	0.0295
S. aureus Newman	0.0267
S. pneumoniae D39V [2]	-0.085

CC[C@H]1OC(=O)[C@H](C)[C@@H](O[C@H]2C[C@@](C)(OC)[C@@H](O)[C@H](C)O2)[C@H](C)[C@@H](O[C@@H]2O[C@H](C)C[C@H](N(C)C)[C@H]2O)[C@](C)(OC)C[C@@H](C)C(=O)[C@H](C)[C@@H](O)[C@]1(C)O [Clarithromycin] + C[C@H]1COc2c(N3CCN(C)CC3)c(F)cc3c(=O)c(C(=O)O)cn1c23 [Levofloxacin]
fitness, S. pneumoniae D39V [1], one replicate
Conditions	first compound 0.007812 µg/mL	first compound 0.01562 µg/mL	first compound 0.03125 µg/mL
partner 0.2 µg/mL	0.782	0.811	0.599
partner 0.4 µg/mL	0.646	0.726	0.533
partner 0.8 µg/mL	0.257	0.316	0.244

S. pneumoniae D39V [1]
Conditions	fitness
first compound 0.0625 µg/mL, partner 0.1725 µg/mL	0.701
first compound 0.0625 µg/mL, partner 0.345 µg/mL	0.691
first compound 0.0625 µg/mL, partner 0.69 µg/mL	0.371
first compound 0.07 µg/mL, partner 0.2 µg/mL	0.139
first compound 0.07 µg/mL, partner 0.4 µg/mL	0.134
first compound 0.07 µg/mL, partner 0.8 µg/mL	0.0857
first compound 0.125 µg/mL, partner 0.1725 µg/mL	0.486
first compound 0.125 µg/mL, partner 0.345 µg/mL	0.463
first compound 0.125 µg/mL, partner 0.69 µg/mL	0.349
first compound 0.14 µg/mL, partner 0.2 µg/mL	0.0726
first compound 0.14 µg/mL, partner 0.4 µg/mL	0.0532
first compound 0.14 µg/mL, partner 0.8 µg/mL	0.063
first compound 0.25 µg/mL, partner 0.69 µg/mL	0.242
first compound 0.28 µg/mL, partner 0.2 µg/mL	0.0574
first compound 0.28 µg/mL, partner 0.4 µg/mL	0.0463
first compound 0.28 µg/mL, partner 0.8 µg/mL	0.0433

Conditions	Bliss interaction score
B. subtilis 168	0.0707
S. aureus DSM 20231	0.0901
S. aureus Newman	0.0872
S. pneumoniae D39V [2]	-0.0537

CC[C@H]1OC(=O)[C@H](C)[C@@H](O[C@H]2C[C@@](C)(OC)[C@@H](O)[C@H](C)O2)[C@H](C)[C@@H](O[C@@H]2O[C@H](C)C[C@H](N(C)C)[C@H]2O)[C@](C)(OC)C[C@@H](C)C(=O)[C@H](C)[C@@H](O)[C@]1(C)O [Clarithromycin] + C[C@H]1c2cccc(O)c2C(=O)C2=C(O)[C@]3(O)C(=O)C(C(N)=O)=C(O)[C@@H](N(C)C)[C@@H]3[C@@H](O)[C@@H]21 [Doxycycline]
fitness, S. pneumoniae D39V [1], one replicate
Conditions	first compound 0.007812 µg/mL	first compound 0.01562 µg/mL	first compound 0.03125 µg/mL	first compound 0.0625 µg/mL	first compound 0.125 µg/mL	first compound 0.25 µg/mL
partner 0.003875 µg/mL	–	–	–	0.674	0.375	0.0974
partner 0.00775 µg/mL	–	–	–	0.736	0.317	0.115
partner 0.0155 µg/mL	0.731	0.708	0.61	–	–	–
partner 0.031 µg/mL	0.681	0.669	0.609	0.464	0.143	0.101
partner 0.062 µg/mL	0.587	0.482	0.266	0.267	0.129	0.0712

fitness, S. pneumoniae D39V [1]
Conditions	first compound 0.0625 µg/mL	first compound 0.07 µg/mL	first compound 0.125 µg/mL	first compound 0.14 µg/mL	first compound 0.25 µg/mL	first compound 0.28 µg/mL
partner 0.0155 µg/mL	0.574	0.0409	0.223	0.0521	0.143	0.0358
partner 0.031 µg/mL	–	0.0283	–	0.0438	–	0.0338
partner 0.062 µg/mL	–	0.0302	–	0.0541	–	0.0267

Conditions	Bliss interaction score
B. subtilis 168	-0.324
S. aureus DSM 20231	-0.161
S. aureus Newman	-0.116
S. pneumoniae D39V [2]	-0.107

CC[C@H]1OC(=O)[C@H](C)[C@@H](O[C@H]2C[C@@](C)(OC)[C@@H](O)[C@H](C)O2)[C@H](C)[C@@H](O[C@@H]2O[C@H](C)C[C@H](N(C)C)[C@H]2O)[C@](C)(OC)C[C@@H](C)C(=O)[C@H](C)[C@@H](O)[C@]1(C)O [Clarithromycin] + C[n+]1ccc(-c2cc[n+](C)cc2)cc1 [Paraquat]
fitness, S. pneumoniae D39V [1], one replicate
Conditions	first compound 0.007812 µg/mL	first compound 0.01562 µg/mL	first compound 0.03125 µg/mL	first compound 0.0625 µg/mL	first compound 0.125 µg/mL	first compound 0.25 µg/mL
partner 1.5 µg/mL	0.899	0.836	0.603	0.771	0.597	0.274
partner 3 µg/mL	0.918	0.871	0.62	0.788	0.684	0.324
partner 6 µg/mL	0.909	0.816	0.657	0.837	0.708	0.345

fitness, S. pneumoniae D39V [1]
Conditions	first compound 0.07 µg/mL	first compound 0.14 µg/mL	first compound 0.28 µg/mL
partner 1.5 µg/mL	0.171	0.129	0.0703
partner 3 µg/mL	0.171	0.103	0.0937
partner 6 µg/mL	0.164	0.126	0.0698

Conditions	Bliss interaction score
B. subtilis 168	-0.0322
S. aureus DSM 20231	-0.0525
S. aureus Newman	-0.0377
S. pneumoniae D39V [2]	0.0803

CC[C@H]1OC(=O)[C@H](C)[C@@H](O[C@H]2C[C@@](C)(OC)[C@@H](O)[C@H](C)O2)[C@H](C)[C@@H](O[C@@H]2O[C@H](C)C[C@H](N(C)C)[C@H]2O)[C@](C)(OC)C[C@@H](C)C(=O)[C@H](C)[C@@H](O)[C@]1(C)O [Clarithromycin] + Cc1cc(NS(=O)(=O)c2ccc(N)cc2)no1 [Sulfamethoxazol]
fitness, S. pneumoniae D39V [1], one replicate
Conditions	first compound 0.007812 µg/mL	first compound 0.01562 µg/mL	first compound 0.03125 µg/mL	first compound 0.0625 µg/mL	first compound 0.125 µg/mL	first compound 0.25 µg/mL
partner 1 µg/mL	0.925	0.809	0.67	0.699	0.466	0.168
partner 2 µg/mL	0.917	0.825	0.665	0.813	0.664	0.315
partner 4 µg/mL	0.899	0.805	0.661	0.613	0.465	0.17

fitness, S. pneumoniae D39V [1]
Conditions	first compound 0.07 µg/mL	first compound 0.14 µg/mL	first compound 0.28 µg/mL
partner 1 µg/mL	0.119	0.0685	0.0468
partner 2 µg/mL	0.11	0.0677	0.0381
partner 4 µg/mL	0.1	0.0655	0.0459

Conditions	Bliss interaction score
B. subtilis 168	0.0784
S. aureus DSM 20231	0.0612
S. aureus Newman	-0.0372
S. pneumoniae D39V [2]	0.0413

CC[C@H]1OC(=O)[C@H](C)[C@@H](O[C@H]2C[C@@](C)(OC)[C@@H](O)[C@H](C)O2)[C@H](C)[C@@H](O[C@@H]2O[C@H](C)C[C@H](N(C)C)[C@H]2O)[C@](C)(OC)C[C@@H](C)C(=O)[C@H](C)[C@@H](O)[C@]1(C)O [Clarithromycin] + Cc1ncc([N+](=O)[O-])n1CCO [Metronidazole]
fitness, S. pneumoniae D39V [1], one replicate
Conditions	first compound 0.007812 µg/mL	first compound 0.01562 µg/mL	first compound 0.03125 µg/mL
partner 1.25 µg/mL	0.927	0.903	0.669
partner 2.5 µg/mL	0.926	0.891	0.692
partner 5 µg/mL	0.917	0.856	0.668

fitness, S. pneumoniae D39V [1]
Conditions	first compound 0.0625 µg/mL	first compound 0.07 µg/mL	first compound 0.125 µg/mL	first compound 0.14 µg/mL	first compound 0.25 µg/mL	first compound 0.28 µg/mL
partner 1.073 µg/mL	0.729	–	0.542	–	0.337	–
partner 1.25 µg/mL	–	0.149	–	0.0801	–	0.0663
partner 2.145 µg/mL	0.734	–	0.598	–	0.393	–
partner 2.5 µg/mL	–	0.168	–	0.0889	–	0.101
partner 4.29 µg/mL	0.688	–	0.554	–	0.257	–
partner 5 µg/mL	–	0.178	–	0.114	–	0.0828

Conditions	Bliss interaction score
B. subtilis 168	0.103
S. aureus DSM 20231	0.118
S. aureus Newman	-0.0393
S. pneumoniae D39V [2]	0.106

CC[C@H]1OC(=O)[C@H](C)[C@@H](O[C@H]2C[C@@](C)(OC)[C@@H](O)[C@H](C)O2)[C@H](C)[C@@H](O[C@@H]2O[C@H](C)C[C@H](N(C)C)[C@H]2O)[C@](C)(OC)C[C@@H](C)C(=O)[C@H](C)[C@@H](O)[C@]1(C)O [Clarithromycin] + Cc1onc(-c2ccccc2)c1C(=O)N[C@@H]1C(=O)N2[C@@H]1SC(C)(C)[C@@H]2C(=O)O [Oxacillin]
fitness, S. pneumoniae D39V [1], one replicate
Conditions	first compound 0.007812 µg/mL	first compound 0.01562 µg/mL	first compound 0.03125 µg/mL
partner 0.01 µg/mL	0.9	0.856	0.678
partner 0.02 µg/mL	0.911	0.833	0.646
partner 0.04 µg/mL	0.414	0.48	0.418

fitness, S. pneumoniae D39V [1]
Conditions	first compound 0.0625 µg/mL	first compound 0.07 µg/mL	first compound 0.125 µg/mL	first compound 0.14 µg/mL	first compound 0.25 µg/mL	first compound 0.28 µg/mL
partner 0.005 µg/mL	–	0.179	–	0.128	–	0.119
partner 0.01 µg/mL	0.564	0.185	–	0.136	0.165	0.0928
partner 0.02 µg/mL	0.54	0.182	–	0.117	0.158	0.107
partner 0.04 µg/mL	–	–	0.254	–	0.0887	–

Conditions	Bliss interaction score
B. subtilis 168	0.0227
S. aureus DSM 20231	0.0328
S. aureus Newman	-0.0384
S. pneumoniae D39V [2]	0.0844
